Measured values reported in ChEMBL document CHEMBL1201862, “PubChem BioAssay data set” (2004).
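Five compound concentrations were applied to cells in 96-well plates for 48 hours; endpoints were derived by simple linear interpolation of the resulting dose-response curve. The concentration for 50% growth inhibition is given as GI50.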 The source made the active and inactive calls. No stated cut-off is given here; in the data, active = GI50 up to about 1.1 µM and inactive = higher.

Legend:
Experiment in all cases: NCI tumour cell line growth inhibition, 48 h
786-0 = system: 786-0
ACHN = system: ACHN
BT-549 = system: BT-549
EKVX = system: EKVX
HCT-116 = system: HCT-116
HOP-62 = system: HOP-62
HOP-92 = system: HOP-92
Hs-578T = system: Hs-578T
IGROV-1 = system: IGROV-1
M14 = system: M14
MDA-MB-435 = system: MDA-MB-435
NCI-H23 = system: NCI-H23
OVCAR-3 = system: OVCAR-3
PC-3 = system: PC-3
SK-MEL-5 = system: SK-MEL-5
SNB-75 = system: SNB-75
SW-620 = system: SW-620
T47D = system: T47D
TK-10 = system: TK-10
UACC-257 = system: UACC-257

SMILES	GI50 (786-0)	GI50 (ACHN)	GI50 (BT-549)	GI50 (EKVX)	GI50 (HCT-116)	GI50 (HOP-62)	GI50 (HOP-92)	GI50 (Hs-578T)	GI50 (IGROV-1)	GI50 (M14)	GI50 (MDA-MB-435)	GI50 (NCI-H23)	GI50 (OVCAR-3)	GI50 (PC-3)	GI50 (SK-MEL-5)	GI50 (SNB-75)	GI50 (SW-620)	GI50 (T47D)	GI50 (TK-10)	GI50 (UACC-257)
C/C(=N\N=C(/[SeH])N1CC2CCC(CC2)C1)c1ccccn1	0.211 µM (active)	0.215 µM (active)	0.182 µM (active)	0.0914 µM (active)	< 0.01 µM (active)	0.341 µM (active)	0.169 µM (active)	0.198 µM (active)	0.0169 µM (active)	0.0255 µM (active)	0.119 µM (active)	0.052 µM (active)	0.0222 µM (active)	0.0647 µM (active)	0.051 µM (active)	0.0871 µM (active)	0.0139 µM (active)	0.0556 µM (active)	0.762 µM (active)	0.0112 µM (active)
Nc1nc(O)nc2c1ncn2C1OC(CO)C(O)C1O (stereo not given)	97.5 µM (inactive)	78.9 µM (inactive)	> 100 µM (inactive)	> 100 µM (inactive)	45 µM (inactive)	> 100 µM (inactive)	57.1 µM (inactive)	> 100 µM (inactive)	> 100 µM (inactive)	39.9 µM (inactive)	57.5 µM (inactive)	> 100 µM (inactive)	52.7 µM (inactive)	22.6 µM (inactive)	> 100 µM (inactive)	6.18 µM (inactive)	50.7 µM (inactive)	25.1 µM (inactive)	38.5 µM (inactive)	> 100 µM (inactive)
CC(=O)Oc1c(C)c2c(c3ncccc13)OC(C)C2 (stereo not given)	12.8 µM (inactive)	11.8 µM (inactive)	21.1 µM (inactive)	17.1 µM (inactive)	14.9 µM (inactive)	17.1 µM (inactive)	14.7 µM (inactive)	22.2 µM (inactive)	6.98 µM (inactive)	15.2 µM (inactive)	6.14 µM (inactive)	17.3 µM (inactive)	32.4 µM (inactive)	26 µM (inactive)	14.5 µM (inactive)	14.8 µM (inactive)	14.2 µM (inactive)	9.14 µM (inactive)	22 µM (inactive)	14.8 µM (inactive)
CN(C)S(=O)(=O)c1ccc(Nc2ccc(O)c3c2C(=O)c2c([N+](=O)[O-])ccc(O)c2C3=O)cc1	> 100 µM (inactive)	55 µM (inactive)	> 100 µM (inactive)	> 100 µM (inactive)	72.9 µM (inactive)	> 100 µM (inactive)	> 100 µM (inactive)	> 100 µM (inactive)	> 100 µM (inactive)	> 100 µM (inactive)	> 100 µM (inactive)	> 100 µM (inactive)	> 100 µM (inactive)	> 100 µM (inactive)	72.3 µM (inactive)	> 100 µM (inactive)	92.3 µM (inactive)	> 100 µM (inactive)	56.4 µM (inactive)	> 100 µM (inactive)
CCOc1ccccc1/N=N/C1C(=O)N(C(=O)CC(=O)Nc2ccccc2Cl)N=C1C (stereo not given)	> 100 µM (inactive)	> 100 µM (inactive)	78.7 µM (inactive)	3.86 µM (inactive)	87.3 µM (inactive)	27.9 µM (inactive)	20.3 µM (inactive)	22.4 µM (inactive)	64.6 µM (inactive)	> 100 µM (inactive)	> 100 µM (inactive)	> 100 µM (inactive)	55.3 µM (inactive)	94.4 µM (inactive)	> 100 µM (inactive)	42.2 µM (inactive)	> 100 µM (inactive)	> 100 µM (inactive)	81.8 µM (inactive)	> 10 µM (inactive)
CC12CCC(C(Nc3ccccn3)C1=O)C2(C)C (stereo not given)	> 100 µM (inactive)	> 100 µM (inactive)	> 100 µM (inactive)	> 100 µM (inactive)	> 100 µM (inactive)	> 100 µM (inactive)	> 100 µM (inactive)	> 100 µM (inactive)	> 100 µM (inactive)	> 100 µM (inactive)	> 100 µM (inactive)	> 100 µM (inactive)	> 100 µM (inactive)	> 100 µM (inactive)	> 100 µM (inactive)	63 µM (inactive)	> 100 µM (inactive)	> 100 µM (inactive)	> 100 µM (inactive)	> 100 µM (inactive)
Nc1nc(N)c(NC(=O)CCCO)c(=O)[nH]1	> 100 µM (inactive)	> 100 µM (inactive)	> 100 µM (inactive)	> 100 µM (inactive)	> 100 µM (inactive)	> 100 µM (inactive)	> 100 µM (inactive)	> 100 µM (inactive)	> 100 µM (inactive)	> 100 µM (inactive)	> 100 µM (inactive)	> 100 µM (inactive)	> 100 µM (inactive)	> 100 µM (inactive)	> 100 µM (inactive)	> 100 µM (inactive)	> 100 µM (inactive)	> 100 µM (inactive)	> 100 µM (inactive)	> 100 µM (inactive)
